Laboratory results taken from paper PMC7037862, “Tricyclic Nucleobase Analogs and Their Ribosides as Substrates and Inhibitors of Purine-Nucleoside Phosphorylases III. Aminopurine Derivatives” (Molecules, 2020).

T1: calf PNP (Bos taurus, UniProt P55859)
T1 construct: made in house; host or cells: E. coli
T1 sequence (P55859 1-289): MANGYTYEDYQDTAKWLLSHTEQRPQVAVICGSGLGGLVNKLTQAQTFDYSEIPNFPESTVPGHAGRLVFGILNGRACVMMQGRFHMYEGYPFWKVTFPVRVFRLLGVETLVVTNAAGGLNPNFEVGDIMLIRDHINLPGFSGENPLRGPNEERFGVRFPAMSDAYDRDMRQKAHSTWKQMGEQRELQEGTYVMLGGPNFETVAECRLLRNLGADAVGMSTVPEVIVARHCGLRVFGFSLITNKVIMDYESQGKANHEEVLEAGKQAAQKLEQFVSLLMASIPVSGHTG

B1: calf PNP-wt (Bos taurus) (protein)
chain: MANGYTYEDYQDTAKWLLSHTEQRPQVAVICGSGLGGLVNKLTQAQTFDYSEIPNFPESTVPGHAGRLVFGILNGRACVMMQGRFHMYEGYPFWKVTFPVRVFRLLGVETLVVTNAAGGLNPNFEVGDIMLIRDHINLPGFSGENPLRGPNEERFGVRFPAMSDAYDRDMRQKAHSTWKQMGEQRELQEGTYVMLGGPNFETVAECRLLRNLGADAVGMSTVPEVIVARHCGLRVFGFSLITNKVIMDYESQGKANHEEVLEAGKQAAQKLEQFVSLLMASIPVSGHTG
notes: made in house; host or cells: E. coli

What was measured:
[1] = biological target: T2, E. coli PNP (Escherichia coli, UniProt P0ABP8); assay: Fluorescence titration of E. coli PNP with ligand (enzyme-ligand complexes); assay type: binding; details: 40 mM phosphate buffer, pH 7, 20 °C; protein 11 μM per subunit
T2 construct: made in house; host or cells: E. coli
T2 sequence (P0ABP8 2-239): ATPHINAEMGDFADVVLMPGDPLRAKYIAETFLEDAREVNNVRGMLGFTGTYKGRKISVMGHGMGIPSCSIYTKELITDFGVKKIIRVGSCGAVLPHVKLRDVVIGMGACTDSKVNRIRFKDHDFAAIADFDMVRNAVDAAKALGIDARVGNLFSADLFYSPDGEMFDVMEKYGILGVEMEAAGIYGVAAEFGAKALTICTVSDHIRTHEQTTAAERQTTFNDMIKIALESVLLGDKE
Method: Additionally, the fluorescence excitation spectra reveal fluorescence energy transfer (FRET) from the protein to the complexed ligand, since they show marked enhancement in the region 270–280 nm, where the tyrosine residues of the PNP molecule absorb (Figure 10).
Figure 10 Changes in fluorescence excitation (a) and emission spectra (b), observed during the titration of E. coli PNP with N^2,3-etheno-2-aminopurine (2). […] Spectra of the free ligand (3.5 μM) are given for comparison (points). Excitation spectrum of the protein, monitored at 310 nm, is given in black. Conditions: 40 mM phosphate, pH 7, at 20 °C. Concentration of protein was 10.1 μM (per subunit); that of the titrant was 0 to 3.5 μM. Lower panels: Fluorescence difference spectra, calculated from data presented on panels (a) and (b), (c) difference excitation (observed at 380 nm), (d) difference emission spectra, excited at 275 nm. Substrate concentrations are 0.17, 0.69, 1.37, 2.36 and 3.31 μM.
Etheno-tubercidine (6) forms somewhat similar fluorescent complexes with the E. coli PNP. As shown below, FRET from the protein to the ligand is evident in the excitation spectra (Figure 11), and the ligand fluorescence blue shifted from 415 to ca. 390 nm (Figure 11b,c). In this case more than 60% of protein fluorescence is quenched when protein binding sites are saturated (cf. Figure 11). […]

[2] = biological target: T2, E. coli PNP; assay: Inhibition of phosphorolysis of purine nucleosides catalyzed by E. coli PNP; assay type: biochemical; details: competitive inhibition of phosphorolysis of purine nucleosides; read-out: inhibition constant, Ki
Method: (§1) Etheno-tubercidine (6) is therefore a good candidate to observe enzyme-ligand complexes by spectral methods, as shown below. No inhibition of the calf PNP was observed, at least in moderate concentrations (up to 50 μM) that we used.
(§2) Enzymatic ribosylation reactions were carried out in 1 mL cuvettes (pathlength 4 mm) in ~50 mM HEPES buffer, pH 7.3, using 0.5 mM R1P as a ribose source. Reactions were followed fluorimetrically (see Section 2.4). On a larger scale (2–4 mg), the reactions were run in Eppendorf tubes, volume 2–3 mL, using either R1P (3–10 mM) or 7-methylguanosine as ribose sources. Products were purified by semi-preparative HPLC, concentrated and the final solutions kept frozen. Their structure has been confirmed by NMR (see Section 2.4 and Supplementary Materials) and by MS: comp. 3: m/z = 292.10385, comp. 4: m/z = 292.10400, comp. 5: m/z = 292.10398, calculated for C12H13N5O4 + H: 292.10403. Phosphorolysis reactions were run in 40–50 mM phosphate buffer, pH 7.0 or 6.5, and followed spectrally or fluorimetrically. Kinetic parameters were calculated by standard methods.

[3] = biological target: T1, calf PNP; assay: Inhibition of calf PNP; assay type: biochemical; details: concentrations up to 50 μM
Method: as §1, §2

[4] = Ionization constants (pKa), determined spectrophotometrically; assay type: physicochemical; details: phosphate and/or acetate buffers, protonation, read-out: pKa (protonation)
Method: Fluorescence spectra were measured on a Varian Eclipse instrument (Varian Corp., Palo Alto, CA, USA), and UV absorption kinetic experiments were performed on a Cary 5000 (Varian Corp., Palo Alto, CA, USA) thermostated spectrophotometer. Fluorescence yields were determined relative to tryptophan (0.15) or 1,N^6-ethenoadenosine in water (0.56, see ref. [2]). Emission spectra were measured in semi-micro cuvettes, pathlength 4 mm, to diminish the inner-filter effect. Typical spectral resolution was 2.5 nm. The ionization constants (pKa values) were determined spectrophotometrically using 20–50 mM phosphate and/or acetate buffers.

[5] = substrate: OC[C@H]1O[C@@H](n2ccn3c4ncnc-4cnc23)[C@H](O)[C@@H]1O; assay: Enzymatic phosphorolysis of ribosides, calf PNP wild type; assay type: biochemical; details: other: phosphorolysis, calf PNP-wt, 40 mM phosphate buffer pH 7
Method: Recombinant E. coli PNP, calf spleen PNP, and their mutated forms were expressed in E. coli and purified according to the procedures described earlier. Enzyme concentrations were calculated per monomer.
as §2

| Molecule | protein fluorescence quenched at saturation of binding sites [1] | Ki [2] | inhibition of the calf PNP [3] | pKa [4] | Km [5] |
| --- | --- | --- | --- | --- | --- |
| OC[C@H]1O[C@@H](n2ccc3c2ncn2ccnc32)[C@H](O)[C@@H]1O [Compound 6, 1,N^6-etheno-tubercidine] | more than 60% | ~4.5 µM | No inhibition | 5.2 | – |
| B1 | – | – | – | – | 4.6 µM |
